US12157736B2, “Spiro-lactam NMDA modulators and methods of using same” (Tenacia Biotechnology (Hong Kong) Co., Limited, priority 2016, dated 2024)

Key:
IV pharmacokinetics = format: in vivo, Sprague Dawley rats; conditions: rat, 2 mg/kg, normal saline
Method: Sprague Dawley rats were dosed intravenously using a normal saline formulation containing 2 mg/kg of the compounds identified in the below table. The table below summarizes the results of the IV pharmacokinetics.

NMDAR2C = biological target: T1, NMDAR2C (Homo sapiens, UniProt Q14957); test: NMDAR agonist assay, [3H]MK-801 binding, NMDAR2C expressing HEK cell membranes; format: biochemical; conditions: 50 μM glutamate; for EC50: read-out: NMDAR2C: log EC50 (converted)
T1 construct: expressed in transfected cells; host or cells: HEK cells (membrane extract)
Method: (§1) Assays were conducted as described by Moskal et al., “GLYX-13: a monoclonal antibody-derived peptide that acts as an N-methyl-D-aspartate receptor modulator,” Neuropharmacology, 49, 1077-87, 2005. These studies were designed to determine if the test compounds act to facilitate NMDAR activation in NMDAR2A, NMDAR2B, NMDAR2C or NMDAR2D expressing HEK cell membranes as measured by increases in [^3H]MK-801 binding.
(§2) In the assay, 300 μg of NMDAR expressing HEK cell membrane extract protein was preincubated for 15 minutes at 25° C. in the presence of saturating concentrations of glutamate (50 μM) and varying concentrations of test compound (1×10^−15M−1×10^−7M), or 1 mM glycine. Following the addition of […] of [^3H]MK-801 (22.5 Ci/mmol), reactions were again incubated for 15 minutes at 25° C. (nonequilibrium conditions). Bound and free [^3H]MK-801 were separated via rapid filtration using a Brandel apparatus.
(§3) In analyzing the data, the DPM (disintegrations per minute) of [^3H]MK-801 remaining on the filter were measured for each concentration of test compound or for 1 mM glycine. The DPM values for each concentration of a ligand (N=2) were averaged. The baseline value was determined from the best fit curve of the DPM values modeled using the GraphPad program and the log(agonist) vs. response (three parameters) algorithm was then subtracted from all points in the dataset. The % maximal [3H]MK-801 binding was then calculated relative to that of 1 mM glycine: all baseline subtracted DPM values were divided by the average value for 1 mM glycine. The EC50 and % maximal activity were then obtained from the best fit curve of the % maximal [3H]MK-801 binding data modelled using the GraphPad program and the log(agonist) vs. response (three parameters) algorithm.
(§4) The tables below summarize the results for the wild type […] NMDAR2A, NMDAR2B, NMDAR2C, and NMDAR2D, and whether the compound is not an agonist (−), is an agonist (+), or is a strong agonist (++), where column A is based on the % maximal [3H]MK-801 binding relative to 1 mM glycine (−=0; <100%=+; and >100%=++); and column B is based on log EC50 values (0=−; ≥1×10^−9 M (e.g., −8)=+; and <1×10^−9 M (e.g., −10)=++).

NMDAR2A = biological target: T2, NMDAR2A (Homo sapiens, UniProt Q12879); test: NMDAR agonist assay, [3H]MK-801 binding, NMDAR2A expressing HEK cell membranes; format: biochemical; conditions: 50 μM glutamate, read-out: NMDAR2A: log EC50 (converted)
T2 construct: expressed in transfected cells; host or cells: HEK cells (membrane extract)
Method: as §1, §2, §3, §4

NMDAR2D = biological target: T3, NMDAR2D (Homo sapiens, UniProt O15399); test: NMDAR agonist assay, [3H]MK-801 binding, NMDAR2D expressing HEK cell membranes; format: biochemical; conditions: 50 μM glutamate
T3 construct: expressed in transfected cells; host or cells: HEK cells (membrane extract)
Method: as §1, §2
as §3, with “algorithm. […]” for “algorithm.”

rats [1] = test: Porsolt forced swim test; format: in vivo, Sprague Dawley rats; conditions: 0.1 mg/kg, Yes = statistically significant (p<=0.05) from vehicle
Method: A non-clinical in vivo pharmacology study (Porsolt assay) was performed to measure antidepressant-like effects. A negative control (0.5% sodium carboxymethyl cellulose in 0.9% sterile saline vehicle) and a positive control (fluoxetine) are shown for comparison against test compound. The study allowed for the evaluation of the effects of each compound on the Porsolt forced swim test as assessed by the rats' response (reduced floating time) during a 5-minute swimming test.
(§5) Male 2-3 month old Sprague Dawley rats were used (Harlan, Indianapolis, IN). Rats were housed in Lucite cages with aspen wood chip bedding, maintained on a 12:12 light:dark cycle (lights on at 5 AM), and given ad libitum access to Purina lab chow (USA) and tap water throughout the study.
The Porsolt forced swim test adapted for use in rats was performed as described by Burgdorf et al., (The long-lasting antidepressant effects of rapastinel (GLYX-13) are associated with a metaplasticity process in the medial prefrontal cortex and hippocampus. Neuroscience 308:202-211, 2015). Animals were placed in a 46 cm tall×20 cm in diameter clear glass tube filled to 30 cm with tap water (23±1° C.) for 15 min on the first day (habituation) and 5 min on the subsequent test day. Positive control fluoxetine was dosed 3 times (24 h, 5 h and 1 h) prior to testing. Animals were tested 1 h or 24 h post-dosing with the test compounds or vehicle. Animals received a 15 min habituation session 1 day before the 5 min test. Water was changed after every other animal. Animals were videotaped, and floating time as defined as the minimal amount of effort required to keep the animals head above water was scored offline by a blinded experimenter with high inter-rater reliability (Pearson's r>0.9).
Each compound tested at dose level shown. Significance vs. vehicle group for each experiment is marked. […] A compound marked “No” was not statistically significant from vehicle. Data was averaged for test compound and vehicle groups (N approximately 8 per group) and the percent reduction in floating for group treated with test compound relative to group treated with vehicle is shown.

rats [2] = test: Bennett model of mechanical analgesia (sciatic nerve chronic constriction injury); format: in vivo, Sprague Dawley rats; conditions: 150 mg/kg PO
Method: The Bennett model of mechanical analgesia is used to assess the analgesic effects of compounds as measured by paw withdrawal threshold. Bennett G J, Xie Y K, “A peripheral mononeuropathy in rat that produces disorders of pain sensation like those seen in man,” Pain 33:87-107, 1988. […] Vehicle animals receive the surgery and then receive vehicle rather than test compound. Animals were tested 1 hr, 24 h and 1 wk post-test compound or vehicle administration.
as §5, with “used. Harlan was the supplier for all studies.” for “used (Harlan, Indianapolis, IN).”
Rats were anesthetized using inhaled isoflurane (2.5%). Sciatic nerve chronic constriction nerve injury surgery was performed as previously described (Bennett and Xie, 1988). An incision (˜1.5 cm in length) was made with a scalpel blade dorsally through skin on the right hind limb, parallel and posterior to femur. Using a small pointed hemostat, the biceps femoris and gluteus superficialis muscles were separated. Using curved blunt forceps, the common sciatic nerve was isolated and exposed. For the mechanical analgesia studies, the whole sciatic nerve was ligated. Using hemostats/forceps and chromic gut (5-0), the nerve was loosely ligated with a square knot; 3 ligatures, 1 mm apart were placed on the nerve. […] Testing occurred approximately 2 weeks post-surgery.
During testing, rats were acclimated to the surface of a suspended wire mesh grid (1 cm×1 cm, with the wire being 0.3 cm in diameter) for 15-20 min. Starting from the smallest, each Von Frey filament was pressed perpendicularly to the plantar surface of the affected (ipsilateral) hind paw until slightly bent and then held for 6 second. If an obvious hind paw withdrawal or a flinching behavior immediately after the withdrawal of the filament was not observed, the next larger filament was used in the same manner. In case of a response, a lower filament was used. This was repeated until six responses were collected.
For all studies, animals were baselined prior to study start to test for allodynia (defined as a paw withdrawal threshold under 5). A subset of animals was tested with gabapentin (150 mg/kg, PO) to ensure at least 50% analgesia. Once it was confirmed animals were ready for study initiation, animals were balanced across groups. All study investigators were blind to treatment conditions. Animals were dosed with 0.1, 1, 10, or 30 mg/kg of test compound via oral gavage (PO), control sets of animals were dosed with gabapentin (150 mg/kg, PO) or vehicle (0.5% Na-CMC in 0.9% sterile saline, PO). Testing occurred 1 h post-dosing with animals retested 24 hrs and 1 week post-dosing. The percent analgesia calculations for each animal were made using the following equation: % analgesia=[(log(x)−y)/((log(z)−y)]*100, where x=the paw withdrawal threshold for the drug-treated animal in grams, y=the average of the log(x) values for the vehicle treated group, and z=the paw withdrawal threshold for naïve animals in grams (historical value of 15 used). The results for Compound AA-2, where the percentage of analgesia is measured at 1 hour, 24 hours, and 1 week after compound administration are as follows: for 0.1 mg/kg dose: 22.3% at 1 h, 1.6% at 24 h, and 2.3% at 1 wk; for 1 mg/kg dose: 19.2% at 1 h, 10.7% at 24 h, and 11.0% at 1 wk; for 10 mg/kg dose: 38.1% at 1 h, 24.3% at 24 h, and 41.4% at 1 wk; and for 30 mg/kg dose: 24.4% at 1 h, 8.7% at 24 h, and 34.5% at 1 wk.

T2 sequence (Q12879 23-1464, species assumed, other chains not shown): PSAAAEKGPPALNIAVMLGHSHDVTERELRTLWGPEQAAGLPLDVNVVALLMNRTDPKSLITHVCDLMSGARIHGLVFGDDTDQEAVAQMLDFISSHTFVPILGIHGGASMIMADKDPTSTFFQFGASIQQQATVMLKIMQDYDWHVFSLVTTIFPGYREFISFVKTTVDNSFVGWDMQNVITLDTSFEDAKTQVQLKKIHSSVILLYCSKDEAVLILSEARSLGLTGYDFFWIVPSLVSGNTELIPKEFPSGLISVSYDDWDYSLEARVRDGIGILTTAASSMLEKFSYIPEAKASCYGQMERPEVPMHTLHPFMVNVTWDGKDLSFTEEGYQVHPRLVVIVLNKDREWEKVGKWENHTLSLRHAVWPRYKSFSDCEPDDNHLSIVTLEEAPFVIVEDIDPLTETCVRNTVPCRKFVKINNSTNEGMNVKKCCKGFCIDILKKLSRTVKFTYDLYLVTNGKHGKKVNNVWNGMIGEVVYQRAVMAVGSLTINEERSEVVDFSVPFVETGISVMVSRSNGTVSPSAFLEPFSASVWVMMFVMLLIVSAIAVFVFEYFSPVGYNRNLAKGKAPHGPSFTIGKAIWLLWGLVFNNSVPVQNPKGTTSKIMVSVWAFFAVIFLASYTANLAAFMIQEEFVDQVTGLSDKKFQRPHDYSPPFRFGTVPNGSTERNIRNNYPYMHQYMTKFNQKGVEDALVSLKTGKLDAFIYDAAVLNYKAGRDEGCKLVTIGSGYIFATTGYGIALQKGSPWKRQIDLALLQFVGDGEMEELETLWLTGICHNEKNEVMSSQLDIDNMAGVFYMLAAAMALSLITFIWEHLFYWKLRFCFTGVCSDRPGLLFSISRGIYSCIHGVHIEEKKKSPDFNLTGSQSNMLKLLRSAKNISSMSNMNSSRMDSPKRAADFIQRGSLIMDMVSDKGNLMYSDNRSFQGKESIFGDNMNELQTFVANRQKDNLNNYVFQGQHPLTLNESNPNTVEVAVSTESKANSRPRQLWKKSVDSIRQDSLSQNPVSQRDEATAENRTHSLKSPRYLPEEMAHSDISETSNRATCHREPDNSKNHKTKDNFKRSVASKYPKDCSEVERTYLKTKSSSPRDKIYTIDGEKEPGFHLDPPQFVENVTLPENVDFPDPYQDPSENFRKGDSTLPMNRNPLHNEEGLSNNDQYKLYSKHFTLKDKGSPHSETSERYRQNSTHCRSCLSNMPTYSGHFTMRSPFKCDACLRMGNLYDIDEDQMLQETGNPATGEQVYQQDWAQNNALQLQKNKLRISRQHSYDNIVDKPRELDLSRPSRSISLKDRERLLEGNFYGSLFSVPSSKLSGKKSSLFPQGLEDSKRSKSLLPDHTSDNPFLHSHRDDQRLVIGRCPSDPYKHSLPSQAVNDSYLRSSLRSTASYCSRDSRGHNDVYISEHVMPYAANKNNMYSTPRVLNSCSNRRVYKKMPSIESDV
T1 sequence (Q14957 20-1233, species assumed, other chains not shown): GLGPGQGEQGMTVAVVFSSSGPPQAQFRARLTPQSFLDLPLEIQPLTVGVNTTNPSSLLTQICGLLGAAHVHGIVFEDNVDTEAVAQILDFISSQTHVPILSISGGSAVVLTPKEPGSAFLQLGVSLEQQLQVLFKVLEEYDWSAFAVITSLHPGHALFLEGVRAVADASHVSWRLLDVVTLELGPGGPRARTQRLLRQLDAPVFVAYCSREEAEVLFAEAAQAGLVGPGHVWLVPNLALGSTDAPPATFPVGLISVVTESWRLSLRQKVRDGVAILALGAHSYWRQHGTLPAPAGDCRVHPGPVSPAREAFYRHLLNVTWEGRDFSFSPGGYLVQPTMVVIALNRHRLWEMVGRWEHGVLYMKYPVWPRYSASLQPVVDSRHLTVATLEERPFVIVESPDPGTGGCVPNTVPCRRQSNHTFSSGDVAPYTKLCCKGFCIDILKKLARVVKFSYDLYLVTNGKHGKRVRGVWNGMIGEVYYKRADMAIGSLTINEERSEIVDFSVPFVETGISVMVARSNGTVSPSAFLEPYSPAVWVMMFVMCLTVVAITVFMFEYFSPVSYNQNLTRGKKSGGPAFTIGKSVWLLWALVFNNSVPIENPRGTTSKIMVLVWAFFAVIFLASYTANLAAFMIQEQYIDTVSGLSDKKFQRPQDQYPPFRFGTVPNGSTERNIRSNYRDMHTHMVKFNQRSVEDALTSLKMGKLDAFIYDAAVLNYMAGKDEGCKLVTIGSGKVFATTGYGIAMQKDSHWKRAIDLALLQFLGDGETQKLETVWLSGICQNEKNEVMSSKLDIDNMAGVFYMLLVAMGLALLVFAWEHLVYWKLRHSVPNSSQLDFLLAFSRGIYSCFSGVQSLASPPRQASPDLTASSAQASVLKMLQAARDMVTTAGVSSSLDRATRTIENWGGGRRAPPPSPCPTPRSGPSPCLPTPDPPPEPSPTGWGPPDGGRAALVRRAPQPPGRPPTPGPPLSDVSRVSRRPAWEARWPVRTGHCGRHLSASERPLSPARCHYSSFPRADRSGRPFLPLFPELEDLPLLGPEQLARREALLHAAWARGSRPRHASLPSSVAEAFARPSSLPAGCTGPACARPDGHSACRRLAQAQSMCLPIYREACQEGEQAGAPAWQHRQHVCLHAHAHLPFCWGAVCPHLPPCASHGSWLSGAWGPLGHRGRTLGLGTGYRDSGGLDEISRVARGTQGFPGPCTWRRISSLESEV
T3 sequence (O15399 28-1336, species assumed, other chains not shown): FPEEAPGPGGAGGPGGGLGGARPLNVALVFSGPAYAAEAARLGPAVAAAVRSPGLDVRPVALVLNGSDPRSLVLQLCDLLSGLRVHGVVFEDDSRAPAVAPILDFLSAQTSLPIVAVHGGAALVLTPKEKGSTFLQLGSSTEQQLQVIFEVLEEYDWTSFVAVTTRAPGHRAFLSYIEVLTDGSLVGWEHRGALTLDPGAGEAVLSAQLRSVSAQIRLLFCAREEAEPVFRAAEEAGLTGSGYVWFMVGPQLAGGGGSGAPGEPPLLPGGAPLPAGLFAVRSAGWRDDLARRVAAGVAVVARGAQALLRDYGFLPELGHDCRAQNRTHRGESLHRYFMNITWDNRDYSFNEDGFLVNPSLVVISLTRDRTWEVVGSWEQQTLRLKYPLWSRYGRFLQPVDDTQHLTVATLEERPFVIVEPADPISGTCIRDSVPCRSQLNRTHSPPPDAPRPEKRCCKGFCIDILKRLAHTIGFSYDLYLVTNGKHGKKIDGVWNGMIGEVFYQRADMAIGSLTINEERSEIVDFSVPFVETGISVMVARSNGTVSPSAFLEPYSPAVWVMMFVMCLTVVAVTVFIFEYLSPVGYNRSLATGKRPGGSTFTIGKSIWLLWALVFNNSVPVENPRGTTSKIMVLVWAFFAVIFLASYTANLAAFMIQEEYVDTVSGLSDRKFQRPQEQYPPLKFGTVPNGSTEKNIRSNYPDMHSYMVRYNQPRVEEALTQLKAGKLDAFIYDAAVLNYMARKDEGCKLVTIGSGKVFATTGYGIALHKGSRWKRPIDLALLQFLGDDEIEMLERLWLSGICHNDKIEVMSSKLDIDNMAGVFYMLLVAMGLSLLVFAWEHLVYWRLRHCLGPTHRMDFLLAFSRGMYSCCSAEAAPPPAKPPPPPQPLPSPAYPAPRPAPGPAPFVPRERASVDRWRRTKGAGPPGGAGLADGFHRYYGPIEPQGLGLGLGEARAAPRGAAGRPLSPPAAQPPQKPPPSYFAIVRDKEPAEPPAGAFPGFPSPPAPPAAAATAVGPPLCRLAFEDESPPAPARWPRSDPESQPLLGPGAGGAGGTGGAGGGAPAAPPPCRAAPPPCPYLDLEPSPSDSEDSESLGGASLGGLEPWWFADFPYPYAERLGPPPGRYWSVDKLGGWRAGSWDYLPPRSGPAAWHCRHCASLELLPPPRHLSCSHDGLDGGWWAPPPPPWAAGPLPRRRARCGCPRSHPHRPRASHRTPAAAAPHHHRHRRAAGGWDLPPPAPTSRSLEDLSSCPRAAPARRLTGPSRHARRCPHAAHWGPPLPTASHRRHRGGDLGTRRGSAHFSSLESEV

SMILES | CI (IV pharmacokinetics) [mL/min/kg] | NMDAR2C A: % maximal [3H]MK-801 binding relative to 1 mM glycine (NMDAR2C) | EC50 (NMDAR2C) [nM] | EC50 (NMDAR2A) [nM] | NMDAR2D: % maximal [3H]MK-801 binding relative to 1 mM glycine (NMDAR2D) | Significance vs. vehicle (rats [1]; 1 h post-dose) | Significance vs. vehicle (rats [1]; 24 h post-dose) | % analgesia, control group of the study (rats [2]; 1 week post-administration) | % analgesia, example (typical) control values (rats [2]; 1 wk) [%] | % analgesia, example (typical) control values (rats [2]; 1 h) [%] | % analgesia, control group of the study (rats [2]; 1 h post-administration) | % analgesia, example (typical) control values (rats [2]; 24 h) [%] | % analgesia, control group of the study (rats [2]; 24 h post-administration)
COc1ccc(CN2CC3(CCNC(=O)C3)C2=O)cc1 (racemic) [AA-rac, 2-(4-methoxybenzyl)-2,7-diazaspiro[3.5]nonane-1,6-dione] | 5.28 | − (−=0) | > 100 | > 100 | + (<100%=+) | Yes | Yes | – | – | – | – | – | –
COc1ccc(CN2C[C@]3(CCNC(=O)C3)C2=O)cc1 [AA-1, 2-(4-methoxybenzyl)-2,7-diazaspiro[3.5]nonane-1,6-dione] | 9.69 | − (−=0) | > 100 | > 100 | + (<100%=+) | Yes | Yes | – | – | – | – | – | –
COc1ccc(CN2C[C@@]3(CCNC(=O)C3)C2=O)cc1 [Compound AA-2, 2-(4-methoxybenzyl)-2,7-diazaspiro[3.5]nonane-1,6-dione] | 9.82 | − (−=0) | > 100 | > 100 | + (<100%=+) | Yes | Yes | – | – | – | – | – | –
NCC1(CC(=O)O)CCCCC1 [gabapentin] | – | – | – | – | – | – | – | under 5% | 0 | 72 | at least 50% | 16 | under 5%
